Measurements from patent US11572359B2, “PARP/PI3K double-target inhibit containing pyridopyrimidine structure” (CHINA PHARMACEUTICAL UNIVERSITY, priority 2017, dated 2023).
Where two headings read alike, the source gives them in different places. Values belong to the compound of their own block, whether it stands above or below them.

Assays:
[1] = test system: Human Breast Cancer MDA-MB-468 Cell Nude Mice Xenograft; assay: Growth of human breast cancer MDA-MB-468 cell nude mice xenograft; type: in vivo; settings: abdominal cavity, once every 2 days; for Tumor weights: after 34 days, in g (unit assumed)
Protocol: Preparing an MDA-MB-468 cell line in a logarithmic growth phase into a 2×10^7/mL cell suspension under sterile conditions, and inoculating 0.1 mL of the cell suspension under the skin of the right axilla of each nude mouse. Measuring the diameter of a nude mice xenograft with a vernier caliper, and randomly dividing the animals into groups after the tumors grew to about 100 mm^3. Dynamically observing an anti-tumor effect of the tested animals using a method of measuring the tumor diameter, wherein the frequency of measurements of the tumor diameter is once every 2 days, and the administration volume is 0.4 mL/20 g. After 34 days, killing the mice and surgically removing and weighing tumor pieces. The formula for calculating tumor volume (TV) is: TV=½×a×b^2, wherein a and b represent the length and the width respectively.

[2] = biological target: PI3Kα (Homo sapiens, UniProt P42336); assay: PI3Kα inhibitory activity at the enzyme level (ADP detection by luciferase method); type: biochemical; settings: for inhibition at 0.1 µM: 100 nM compound, read-out: Inhibition rate on PI3Kα (100 nM)
PI3Kα, sequence (P42336 whole entry): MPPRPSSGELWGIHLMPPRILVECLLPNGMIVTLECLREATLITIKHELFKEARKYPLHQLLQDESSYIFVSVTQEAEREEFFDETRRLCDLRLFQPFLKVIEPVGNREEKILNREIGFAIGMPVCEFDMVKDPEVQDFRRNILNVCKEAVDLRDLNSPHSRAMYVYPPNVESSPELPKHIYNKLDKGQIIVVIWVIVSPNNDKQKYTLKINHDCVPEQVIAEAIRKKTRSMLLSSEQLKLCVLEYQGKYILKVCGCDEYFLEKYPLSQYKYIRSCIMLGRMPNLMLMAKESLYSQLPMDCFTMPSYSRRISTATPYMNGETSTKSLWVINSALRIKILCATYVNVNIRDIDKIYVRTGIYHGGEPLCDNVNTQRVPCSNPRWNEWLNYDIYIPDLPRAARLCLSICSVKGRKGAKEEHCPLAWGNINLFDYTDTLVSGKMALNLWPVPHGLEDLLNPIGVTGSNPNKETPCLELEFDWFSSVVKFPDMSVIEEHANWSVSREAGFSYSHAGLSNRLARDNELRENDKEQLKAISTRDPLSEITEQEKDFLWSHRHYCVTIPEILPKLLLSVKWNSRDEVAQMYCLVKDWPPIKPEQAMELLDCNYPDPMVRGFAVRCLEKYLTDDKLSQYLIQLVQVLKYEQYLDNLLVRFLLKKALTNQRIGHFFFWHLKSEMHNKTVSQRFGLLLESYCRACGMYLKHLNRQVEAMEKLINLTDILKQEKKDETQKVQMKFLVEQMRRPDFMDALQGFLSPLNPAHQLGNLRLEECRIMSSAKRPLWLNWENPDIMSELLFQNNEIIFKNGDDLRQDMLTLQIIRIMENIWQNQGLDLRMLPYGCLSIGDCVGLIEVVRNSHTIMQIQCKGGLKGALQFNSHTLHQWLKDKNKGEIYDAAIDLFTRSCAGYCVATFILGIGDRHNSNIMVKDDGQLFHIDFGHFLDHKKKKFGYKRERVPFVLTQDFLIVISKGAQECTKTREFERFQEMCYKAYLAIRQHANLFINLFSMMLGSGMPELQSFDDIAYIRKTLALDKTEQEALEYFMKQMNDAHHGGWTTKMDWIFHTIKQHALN
PI3Kα, sequence (P27986 whole entry partner): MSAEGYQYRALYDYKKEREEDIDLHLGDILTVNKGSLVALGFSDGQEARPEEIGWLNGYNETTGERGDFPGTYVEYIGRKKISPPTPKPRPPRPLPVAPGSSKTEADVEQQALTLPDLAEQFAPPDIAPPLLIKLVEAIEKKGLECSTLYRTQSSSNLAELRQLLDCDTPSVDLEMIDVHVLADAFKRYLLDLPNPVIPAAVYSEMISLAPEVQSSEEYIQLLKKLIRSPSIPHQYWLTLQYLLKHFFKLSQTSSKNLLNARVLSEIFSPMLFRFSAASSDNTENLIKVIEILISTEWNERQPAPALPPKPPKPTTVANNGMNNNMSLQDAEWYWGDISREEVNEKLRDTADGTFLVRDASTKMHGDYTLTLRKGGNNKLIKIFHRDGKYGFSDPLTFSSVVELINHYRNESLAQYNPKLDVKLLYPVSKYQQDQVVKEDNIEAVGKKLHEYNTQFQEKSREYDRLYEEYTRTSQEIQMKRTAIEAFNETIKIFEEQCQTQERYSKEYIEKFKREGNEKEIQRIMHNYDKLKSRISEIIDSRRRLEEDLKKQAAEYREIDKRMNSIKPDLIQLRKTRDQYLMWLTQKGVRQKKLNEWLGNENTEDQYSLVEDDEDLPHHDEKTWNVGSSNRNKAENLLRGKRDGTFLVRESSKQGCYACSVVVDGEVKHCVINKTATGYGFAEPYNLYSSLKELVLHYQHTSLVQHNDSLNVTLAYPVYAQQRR
Protocol: Experimental method for PI3Kα inhibitory activity: simultaneously adding 40 mM Tris, pH 7.4, 10 mM MgCl2, 0.1 mg/ml BSA, 1 mM DTT, 10 μM ATP, PI3Kα kinase and a kinase substrate into different concentrations of compounds to be sieved to form a 50 μL reaction system, after reaction at 30° C. for 40 minutes, detecting an ADP content in the system through a luciferase method, and then after reaction for 5 minutes, detecting a chemiluminescence signal on an MD-SpectraMax M5 multi-function microplate reader, wherein the intensity of a value of the chemiluminescence signal is in direct proportion to […]. The detected value of the chemiluminescence signal is substituted into the following formula: Enzyme activity percentage (%)=(OD value administration hole-OD value background)/(OD value control hole−OD value background)×100%
(§1) Method for determining IC50 of PARP-1 and PI3Kα: diluting a drug concentration according to a three-fold concentration gradient, and detecting two duplicate wells at each concentration; taking the drug concentration as the abscissa and the percentage of enzyme activity corresponding to each concentration as the ordinate, and calculating to obtain inhibition IC50 values of all tested compounds by using Graphpad Prism5 for nonlinear regression.

[3] = biological target: PARP-1 (Homo sapiens, UniProt P09874); assay: PARP-1 inhibitory activity at the enzyme level (histone-coated plate, chemiluminescence); type: biochemical; settings: for inhibition at 0.01 µM: 10 nM compound, read-out: Inhibition rate on PARP-1 (10 nM)
PARP-1, sequence (P09874 whole entry): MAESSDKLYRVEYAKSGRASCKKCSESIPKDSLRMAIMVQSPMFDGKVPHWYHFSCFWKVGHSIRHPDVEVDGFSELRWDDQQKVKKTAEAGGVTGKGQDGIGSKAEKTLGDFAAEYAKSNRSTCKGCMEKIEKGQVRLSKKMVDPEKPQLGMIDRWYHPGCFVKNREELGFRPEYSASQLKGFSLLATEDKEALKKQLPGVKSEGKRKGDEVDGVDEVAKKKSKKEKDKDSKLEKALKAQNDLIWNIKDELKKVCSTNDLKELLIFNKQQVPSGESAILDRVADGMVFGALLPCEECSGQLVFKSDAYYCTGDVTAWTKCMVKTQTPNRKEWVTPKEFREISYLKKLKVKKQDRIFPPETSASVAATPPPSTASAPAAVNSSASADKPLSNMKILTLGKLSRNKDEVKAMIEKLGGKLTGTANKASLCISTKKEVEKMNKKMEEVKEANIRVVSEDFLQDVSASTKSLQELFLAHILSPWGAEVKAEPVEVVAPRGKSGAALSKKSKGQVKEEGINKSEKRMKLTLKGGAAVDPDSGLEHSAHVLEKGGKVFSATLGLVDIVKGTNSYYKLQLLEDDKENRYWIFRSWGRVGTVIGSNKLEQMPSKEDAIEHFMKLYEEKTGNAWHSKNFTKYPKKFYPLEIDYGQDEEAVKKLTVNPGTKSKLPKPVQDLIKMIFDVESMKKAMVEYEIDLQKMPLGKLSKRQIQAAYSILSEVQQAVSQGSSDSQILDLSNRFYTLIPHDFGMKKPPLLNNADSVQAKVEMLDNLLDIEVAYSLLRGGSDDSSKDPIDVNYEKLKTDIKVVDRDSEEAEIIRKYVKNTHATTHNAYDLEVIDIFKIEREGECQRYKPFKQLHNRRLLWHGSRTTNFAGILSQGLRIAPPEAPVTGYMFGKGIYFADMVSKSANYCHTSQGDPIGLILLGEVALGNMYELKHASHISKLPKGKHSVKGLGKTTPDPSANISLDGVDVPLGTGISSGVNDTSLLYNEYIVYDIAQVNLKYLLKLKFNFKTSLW
Protocol: Experimental method for PARP-1 inhibitory activity: taking out a 96-well plate pre-coated with histones, and adding a following enzyme reaction system and inhibitors of different concentrations into each well, including: 50 μL of a reaction buffer solution (Tris*HCl, pH 8.0), NAD^+, biotin-labeled activated DNA, PARP-1 enzyme, and an inhibitor; after reaction at a room temperature for 1 hour, adding 50 uL of avidin-labeled HRP into each well for reaction for 30 minutes; and then adding 100 μL of an HRP substrate, and detecting a chemiluminescence value on a SpectraMax M instrument. The percentage of enzyme activity is calculated by the following formula: Enzyme activity percentage (%)=(OD value administration hole-OD value background)/(OD value control hole−OD value background)×100%
as §1

[4] = test system: MDA-MB-468 (human breast cancer cells); assay: Tumor cell proliferation inhibition (SRB, 72 hours), MDA-MB-468; type: cell-based
Protocol: Inoculating HCT116 (human colon cancer cells), HCC1937 (human breast cancer cells), MDA-MB-231 (human breast cancer cells) and MDA-MB-468 (human breast cancer cells) in a logarithmic growth phase with a certain quantity in a 96-well plate (200 μL/well) for culture for 24 hours so as to adhere to walls and then adding drugs. Arranging 3 duplicate wells for each drug concentration, and setting corresponding zero-cut holes and blank controls. After 72 hours of drug action, adding 50% TCA (50 μL/well) into adherent cells, fixing at 4° C. for 1 hour, pouring a fixing solution, washing for 5 times with distilled water, and naturally drying. Adding 100 μL of 4 mg/mL SRB into each well, staining at a room temperature for 15 minutes, discarding, washing for 5 times with 1% glacial acetic acid, and naturally drying. Finally, adding 150 μL of a 10 mM Tris solution into each well, shaking to be uniform, and measuring OD values at a wavelength of 565 nm using a wavelength-adjustable microplate reader (VERSAmax™, Molecular Device).

SMILES: Nc1cc(C(F)(F)F)c(-c2cc(N3CCOCC3)nc(N3CCOCC3)n2)cn1 [BKM120, reference compound]
Tumor Volumes ([1]; 0 day, 27.5 mg/kg): 94.67 mm^3
Tumor Volumes ([1]; 6 days, 27.5 mg/kg): 203.83 mm^3
Tumor Volumes ([1]; 12 days, 27.5 mg/kg): 294.34 mm^3
Tumor Volumes ([1]; 18 days, 27.5 mg/kg): 388.09 mm^3
Tumor Volumes ([1]; 24 days, 27.5 mg/kg): 525.13 mm^3
Tumor Volumes ([1]; 30 days, 27.5 mg/kg): 677.51 mm^3
Tumor Volumes ([1]; 34 days, 27.5 mg/kg): 777.59 mm^3
Tumor weights ([1]; 27.5 mg/kg): 1.36

SMILES: O=C(CN1CCOCC1)Nc1cc(C(F)(F)F)c(-c2nc3c(c(N4CCOCC4)n2)CCN(C(=O)c2cc(Cc4n[nH]c(=O)c5ccccc45)ccc2F)C3)cn1 [I-4, N-(5-(7-(2-fluoro-5-((4-oxo-3,4-dihydrophthalazin-1-yl)methyl)benzoyl)-4-morpholinyl-5,6,7,8-tetrahydropyrido[3,4-cl]pyrimidin-2-yl)-4-(trifluoromethyl)pyridin-2-yl)-2-morpholinyl acetamide]
inhibition at 0.1 µM [2]: 53%
inhibition at 0.01 µM [3]: 67%

SMILES: Nc1ncc(-c2nc3c(c(N4CCOCC4)n2)CCN(C(=O)c2cc(Cc4n[nH]c(=O)c5ccccc45)ccc2F)C3)cc1C(F)(F)F [I-5, 4-(3-(2-(6-amino-5-(trifluoromethyl)pyridin-3-yl)-4-morpholinyl-5,6,7,8-tetrahydropyrido [3,4-d]pyrimidin-7-formyl)-4-fluorobenzyl)phthalazin-1(2H)-one]
inhibition at 0.1 µM [2]: 17%
inhibition at 0.01 µM [3]: 81%
melting point: 256 to 258 °C

SMILES: Nc1ccc(-c2nc3c(c(N4CCOCC4)n2)CCN(C(=O)c2cc(Cc4n[nH]c(=O)c5ccccc45)ccc2F)C3)c(F)c1 [I-6, 4-(3-(2-(4-amino-2-fluorophenyl)-4-morpholinyl-5,6,7,8-tetrahydropyrido[3,4-d]pyrimidin-7-formyl)-4-fluorobenzyl)phthalazin-1(2H)-one]
inhibition at 0.1 µM [2]: 24%
inhibition at 0.01 µM [3]: 89%
melting point: 204 to 206 °C

SMILES: Nc1cc(-c2nc3c(c(N4CCOCC4)n2)CCN(C(=O)c2cc(Cc4n[nH]c(=O)c5ccccc45)ccc2F)C3)ccc1F [I-7, 4-(3-(2-(3-amino-4-fluorophenyl)-4-morpholinyl-5,6,7,8-tetrahydropyrido[3,4-d]pyrimidin-7-formyl)-4-fluorobenzyl)phthalazin-1(2H)-one]
inhibition at 0.1 µM [2]: 27%
inhibition at 0.01 µM [3]: 83%
melting point: 236 to 239 °C

SMILES: O=C(c1cc(Cc2n[nH]c(=O)c3ccccc23)ccc1F)N1CCN(C(=O)C2CC2)CC1 [Olaparib, reference compound]
Tumor Volumes ([1]; 0 day, 50 mg/kg (I-1: medium)): 96.41 mm^3
Tumor Volumes ([1]; 6 days, 50 mg/kg (I-1: medium)): 222.00 mm^3
Tumor Volumes ([1]; 12 days, 50 mg/kg (I-1: medium)): 324.20 mm^3
Tumor Volumes ([1]; 18 days, 50 mg/kg (I-1: medium)): 422.84 mm^3
Tumor Volumes ([1]; 24 days, 50 mg/kg (I-1: medium)): 566.86 mm^3
Tumor Volumes ([1]; 30 days, 50 mg/kg (I-1: medium)): 718.76 mm^3
Tumor Volumes ([1]; 34 days, 50 mg/kg (I-1: medium)): 834.87 mm^3
Tumor weights ([1]; 50 mg/kg (I-1: medium)): 1.55

Continued, values first:

inhibition at 0.1 µM [2]: 30%
inhibition at 0.01 µM [3]: 85%
melting point: 238 to 240 °C
SMILES: O=C(c1cc(Cc2n[nH]c(=O)c3ccccc23)ccc1F)N1CCc2c(nc(-c3ccc4[nH]ccc4c3)nc2N2CCOCC2)C1 [I-9, 4-(3-(2-(1H-indole-5-yl)-4-morpholinyl-5,6,7,8-tetrahydropyrido[3,4-d]pyrimidin-7-formyl)-4-fluorobenzyl)phthalazin-1(2H)-one]

inhibition at 0.1 µM [2]: 15%
inhibition at 0.01 µM [3]: 88%
SMILES: O=C(c1cc(Cc2n[nH]c(=O)c3ccccc23)ccc1F)N1CCc2c(nc(-c3cccc4[nH]ccc34)nc2N2CCOCC2)C1 [I-10, 4-(3-(2-(1H-indole-4-yl)-4-morpholinyl-5,6,7,8-tetrahydropyrido[3,4-d]pyrimidin-7-formyl)-4-fluorobenzyl)phthalazin-1(2H)-one]

IC50 [4]: 0.738 µM
IC50 ([4]; Homo sapiens, MDA-MB-468, 72 h): < 1 µM
IC50 [2]: 0.0298 µM
inhibition at 0.1 µM [2]: 67%
IC50 [3]: 0.000376 µM
inhibition at 0.01 µM [3]: 94%
melting point: 214 to 216 °C
SMILES: C[C@H]1COCCN1c1nc(-c2cnc(N)nc2)nc2c1CCN(C(=O)c1cc(Cc3n[nH]c(=O)c4ccccc34)ccc1F)C2 [I-11, (S)-4-(3-(2-(2-aminopyrimidin-5-yl)-4-(3-methylmorpholinyl)-5,6,7,8-tetrahydropyrido [3,4-d]pyrimidin-7-formyl)-4-fluorobenzyl)phthalazin-1(2H)-one]
